Test results as given in PMC8196580, “Identification of Kaurane-Type Diterpenes as Inhibitors of Leishmania Pteridine Reductase I” (Molecules, 2021).
Read-outs that look alike come from different tables or passages of the source.

What was measured:
L. major [1] = test: ChEMBL dataset of pIC50 values against L. major used for the RF model (Table S1); assay type: cell-based, Leishmania major; note: call rule not given here
L. major [2] = test system: L. major; design: method as in ChEMBL; conditions: ref ChEMBL, cited from earlier work
[3] = Active/Inactive class assigned to the ChEMBL pIC50 value for Random forest model construction, ref ChEMBL
[4] = ChemBL structures with pIC50 values used for Random forest model construction, L. major
[5] = Active/Inactive class assigned to ChemBL structures for Random forest model construction (Table S1)
[6] = ChemBL structures with pIC50 values used for Random forest model construction (Table S1)

Compound	Outcome (L. major [1]; [3])	pIC50 Value (L. major [2]; [4])	Outcome (L. major [1]; [5])	pIC50 Value (L. major [2]; [6])
O=C(c1ccccc1)N1CCN(c2nnc(-c3ccc([N+](=O)[O-])s3)s2)CC1 [CHEMBL195362]	Inactive	4.60		
C[C@H]1COC2=C1C(=O)C(=O)c1c2ccc2c1[C@H](O)CCC2(C)C [CHEMBL485279]	Inactive	4.33		
COc1ccccc1-c1nnc(-c2ccc(C(=O)N/N=C/c3c(O)cc(O)cc3O)cc2)o1 [CHEMBL4080097]			Active	5.32
O=C(c1cccs1)N1CCN(c2nnc(-c3ccc([N+](=O)[O-])o3)s2)CC1 [CHEMBL458529]	Inactive	4.72		
CN(C)c1nccn2c(-c3ccncc3)c(-c3ccc(F)cc3)nc12 [CHEMBL3634367]	Active	5.19		
CCCCCCNc1ccc(Nc2c3ccc(Cl)cc3nc3ccc(OC)cc23)cc1 [CHEMBL420434]			Active	6.70
C=C[C@@]1(C)Cc2c(OC(C)=O)ccc(OC(C)=O)c2C[C@H]1C(=C)C [CHEMBL442439]			Active	5.37
COc1cc(OC)c2c(C)[n+](-c3ccc(OC(C)=O)cc3)c(C)cc2c1.F[B-](F)(F)F [CHEMBL480761]	Inactive	4.00		
O=C(O)CN1CN(CCO)CSC1=S [CHEMBL4290046]	Inactive	4.40		
O=[N+]([O-])c1cccc(-c2nc3ccccc3[nH]2)c1 [CHEMBL475377]			Active	5.47
CN(C)CCNc1nccn2c(-c3ccncc3)c(-c3ccc(F)cc3)nc12 [CHEMBL3634366]	Inactive	4.45		
CCCC/C=C/C=C/c1nc2ccc(OC)cc2n2cccc12 [CHEMBL3260216]			Active	5.36
C/C=C/C=C/c1nc2ccccc2n2ccc(OCC)c12 [CHEMBL3260219]			Active	5.82
CCCCCNCc1ccc(Nc2c3ccccc3nc3ccccc23)cc1 [CHEMBL89683]			Active	5.70
Clc1cccc(-c2c(-c3ccccc3)nc3cnccn23)c1 [CHEMBL3634354]	Inactive	4.84		
Ic1c(-c2ccccc2)nc2c(NCCN3CCOCC3)nccn12 [CHEMBL3634359]	Inactive	4.97		
Nc1ccc(-c2c(-c3ccccc3)nc3ccccn23)cc1 [CHEMBL2151863]	Inactive	4.37		
CCCN1CSC(=S)N(C(C)c2ccccc2)C1 (stereo not drawn) [CHEMBL4290968]	Inactive	4.62		
OC(Cn1cncn1)(Cn1cncn1)c1ccc(F)cc1F [CHEMBL106]	Inactive	3.79		
COc1ccccc1-c1nnc(-c2ccc(C(=O)N/N=C/c3ccc(F)cc3)cc2)o1 [CHEMBL4099059]	Inactive	4.85		
Clc1cc(Cl)cc(-c2c(-c3ccccc3)nc3cnccn23)c1 [CHEMBL3634355]	Inactive	4.99		
CCCc1cc(-c2nn3c(-c4ccccc4)nnc3s2)n(CC)n1 [CHEMBL1256824]	Inactive	4.00		

Compound	Outcome (L. major [1]; [3])	pIC50 Value (L. major [2]; [4])	Outcome (L. major [1]; [5])	pIC50 Value (L. major [2]; [6])
C/C=C/c1cc(OC)c(OC)c(O)c1OC [CHEMBL501754]	Inactive	3.41		
CN(C)CCNc1nccn2c(I)c(-c3ccccc3)nc12 [CHEMBL3634357]	Inactive	4.62		
COCC1=C(C(=O)OC)C(c2cccc([N+](=O)[O-])c2)NC(=O)N1 (stereo not drawn) [CHEMBL3786102]			Active	5.53
COCCOC(=O)C1=C(C)NC(C)=C(C(=O)OC(C)C)C1c1cccc([N+](=O)[O-])c1 (stereo not drawn) [CHEMBL1428]	Inactive	4.51		
Oc1ccc(-c2c(-c3ccccc3)nc3ccccn23)cc1 [CHEMBL2151859]	Inactive	4.40		
COc1ccc(OC)c2c(O)cc(C)cc12 [CHEMBL2071229]	Inactive	4.42		
CCCC/C=C/C=C/c1nc2cc(OC)ccc2n2cccc12 [CHEMBL3260215]			Active	5.60
c1ccc(-c2nc3ccccn3c2-c2ccsc2)cc1 [CHEMBL2151872]	Inactive	4.84		
CCn1nc(C)cc1-c1nnc2sc(Cc3c(F)cccc3Cl)nn12 [CHEMBL1256857]	Inactive	4.00		
COc1cc(OC)c2c(C)[n+](-c3ccc(Br)cc3)c(C)cc2c1.F[B-](F)(F)F [CHEMBL520594]	Inactive	4.71		
CN(C)c1nccn2c(I)c(-c3ccccc3)nc12 [CHEMBL3634358]	Active	5.17		
O=[N+]([O-])c1ccc(-c2nc3ccc([N+](=O)[O-])cc3[nH]2)cc1 [CHEMBL1483847]			Active	5.58
COc1ccc(/C=N\NC(N)=S)cc1OCc1cn(CC(=O)c2ccc(Br)cc2)nn1 [CHEMBL4175020]	Active	5.24		
COc1ccc(/C=N/NC(=O)c2ccccc2OC)cc1 [CHEMBL2382041]	Inactive	4.40		
Cc1ccc(Nc2ncnc3ccc([N+](=O)[O-])cc23)cc1 [CHEMBL3759143]	Inactive	4.62		
CCN(CC)CCNc1ccc(Nc2c3ccccc3nc3ccccc23)cc1OC [CHEMBL92012]			Active	5.80
Cc1ccc2cc(/C=C/C(=O)c3ccc(C)s3)c(Cl)nc2c1 [CHEMBL1940853]			Active	5.65
O=[N+]([O-])c1ccc(-c2c(-c3ccccc3)nc3ccccn23)cc1 [CHEMBL2151862]			Active	5.31
NP(=O)(OCc1ccccc1[N+](=O)[O-])N(CCCl)CCCl (stereo not drawn) [CHEMBL1256928]	Inactive	4.52		
COc1ccc(C(=O)/C=C/c2ccc(-n3ccnc3)cc2)cc1OC [CHEMBL570484]			Active	5.61
CC1=N[C@H](C)Cc2c(-c3ccccc3)ccc(O)c21 [CHEMBL1275788]	Inactive	4.00		
Cc1cc(C)nc(SCc2nn3c(-c4ccccc4)nnc3s2)n1 [CHEMBL1256856]	Inactive	4.00		

Compound	Outcome (L. major [1]; [3])	pIC50 Value (L. major [2]; [4])	Outcome (L. major [1]; [5])	pIC50 Value (L. major [2]; [6])
COc1cccc2c(-c3ccc4c(c3O)[C@@H](C)N[C@H](C)C4)c(C)cc(OC)c12 [CHEMBL410597]	Inactive	4.33		
COc1ccc(/C=N\NC(N)=S)cc1OCc1cn(CC(=O)c2ccccc2)nn1 [CHEMBL4171583]			Active	5.36
COc1ccc(/C=N/NC(N)=S)cc1OCc1cn(CC(=O)c2ccc(C)cc2)nn1 [CHEMBL4173573]			Active	5.66
COc1cc(OC)c(-c2ccc(OC)c3c(OC)cc(C)cc23)c2c1C(C)=N[C@@H](C)C2 [CHEMBL390586]	Inactive	4.00		
Cn1cc(C2N(c3ccccc3)C(=O)C2(c2ccccc2)c2ccccc2)c2ccccc21 (stereo not drawn) [CHEMBL2071560]			Active	5.85
O=C(/C=C/c1ccc(-n2ccnc2)cc1)c1cccc(F)c1F [CHEMBL570959]			Active	5.57
CCCN1CN(CC(=O)OCC)CSC1=S [CHEMBL4279218]	Inactive	3.97		
O=[N+]([O-])c1ccccc1-c1nc2ccccc2[nH]1 [CHEMBL209918]			Active	5.54
COc1ccccc1-c1nnc(-c2ccc(C(=O)N/N=C/c3ccncc3)cc2)o1 [CHEMBL4080524]	Inactive	4.41		
C/C=C/C1=C(OC)C(=O)C(OC)=C(OC)C1=O [CHEMBL454996]	Inactive	4.14		
Oc1ccc(-c2nc3ccccc3[nH]2)cc1 [CHEMBL377740]			Active	5.36
CC(=O)C1=C(C)NC(=O)NC1c1cccc(C)c1 (stereo not drawn) [CHEMBL3786214]			Active	5.44
CN(C)c1ccc2c(Nc3ccccc3)c3ccc(N(C)C)cc3nc2c1 [CHEMBL37644]			Active	7.52
Clc1ccc2c(N3CCN(Cc4ccc(-c5ccccc5)cc4)CC3)ccnc2c1 [CHEMBL1256766]	Inactive	4.49		
COc1cc(/C=N/NC(N)=S)ccc1OCc1cn(-c2ccc(C(=O)O)cc2)nn1 [CHEMBL4173978]	Active	5.24		
Cc1ccc(C(=O)/C=C/c2cc3cccc(C)c3nc2Cl)s1 [CHEMBL1940864]			Active	5.73
NP(=O)(OCc1ccc([N+](=O)[O-])cn1)N(CCCl)CCCl (stereo not drawn) [CHEMBL2158073]	Active	5.08		
CC1=N[C@H](C)Cc2c(-c3cccc4ccccc34)ccc(O)c21 [CHEMBL1276916]	Inactive	4.87		
Cc1ccc2c(n1)[nH]c1ccccc12 [CHEMBL1255761]	Inactive	4.01		
CN(C)CCNc1nccn2c(I)c(-c3ccc(F)cc3)nc12 [CHEMBL3634360]	Inactive	4.61		
Cc1cccc2nc(-c3ccc(C(=O)N/N=C/c4cccc(O)c4O)cc3)[nH]c12 [CHEMBL3317782]	Inactive	4.42		
CC(C)C1=CC(=O)C2=C(CC[C@H]3C(C)(C)CCC[C@]23C)C1=O [CHEMBL3355361]			Active	6.74
